Data on 5 compounds can be found in patent US20240408271A1, “Functionalized Linkers in Responsive Biomaterials” (priority 2021, published 2024).

Data set [1] relates to MC3T3-E1 pre-osteoblast cells. The text has this: FIG. 14A is a graph showing in vitro testing with MC3T3-E1 pre-osteoblast cells to establish cytotoxicity of hydrogen peroxide.
FIG. 14B is a graph showing in vitro testing with MC3T3-E1 pre-osteoblast cells to establish cytotoxicity of ethyl pyruvate.
(§1) As shown in FIGS. 14A and 14B, in vitro cytotoxicity profiles were first established for H2O2 and ethyl pyruvate with MC3T3-E1 pre-osteoblast cells.

The conditions of data set [2]: cited from earlier work.
Data set [3] is described as follows: EPTK degradation and ethyl pyruvate release in H2O2 (NMR, HPLC). In kind it is physicochemical. The text has this: FIG. 13B is an NMR spectrum of the thioketal peak after three days of degradation in varying ROS concentrations
A new thioketal linker was synthesized containing the small molecule therapeutic ethyl pyruvate (FIG. 12).

The subject of a further data set is MC3T3-E1 cells. In kind it is cell-based. The note with it: MC3T3-E1, + 1 mM H2O2.
Source text: FIG. 14C is a graph showing a cell saving study capability test of released ethyl pyruvate and degraded ethyl pyruvate.
as §1

As to `OO` [H2O2, hydrogen peroxide], in data set [1] (dose of 1 mM, over 24 hrs, MC3T3-E1), the cell death was about 50%.
`CC(=O)[C@H]1CC[C@H]2[C@@H]3CCC4=CC(=O)CC[C@]4(C)[C@H]3CC[C@]12C` [progesterone]: the Log P (in general, a log measure of how a compound divides between an organic and an aqueous phase) in data set [2] is given as 3.78.
For the compound `Cc1ccc(C(=O)c2ccc(CC(=O)O)n2C)cc1` [tolmetin], in data set [2], the “Log P” value is 2.07.
Turning to ethyl pyruvate thioketal [EPTK], in data set [3] (200 mM H2O2 for 48 hrs, HPLC), the “release of intact ethyl pyruvate” value was “intact ethyl pyruvate matching the original drug's character was released”. The “degradation of thioketal bond” value in data set [3] (escalating doses of H2O2, NMR, three days) is “dose-dependent degradation”. Further, the “rate of ethyl pyruvate release” value in data set [3] (increasing doses of ROS) is recorded as “increased the rate of ethyl pyruvate release”. Besides, the “protection of cells from oxidative toxicity” value in the data set on MC3T3-E1 cells is “some inherent antioxidant protection”.
Regarding `CCOC(=O)C(C)=O` [ethyl pyruvate], the “dose at which toxicity is displayed” value in data set [1] (mouse) is listed as at least 10 mM. Also, in the data set with MC3T3-E1 cells, the “protection of cells from oxidative toxicity” value is on record as “robust protection”.
